Measured values as given in patent US10765651B2, “Co-crystals of substituted glycine and uses thereof” (SyneuRx International (Taiwan) Corp., priority 2017, dated 2020).

Tests used:
[1] = Hygroscopicity test, condition 2 (humidity chamber, weight change); assay type: physicochemical; conditions: for Weight change (%): dry before (change on drying to 0 hr weight)
[2] = Hygroscopicity test, condition 3 (dynamic vapor sorption, 0 to 90 to 0% RH); assay type: physicochemical; conditions: DVS, 25° C.
Experimental: Measurement were taken from 0 to 90 to 0% RH at 25° C. with 10% RH per step with equilibration set to dm/dt+0.01%/min for 10 min or 180 min/step.

[3] = 30° C., 75% RH, 5 hr, listed as 1:1 N-methylglycine:DL-tartaric acid co-crystal

Structure (SMILES)	Weight ([1]; 30° C., 75% RH, 0 hr) [g]	Weight ([1]; 30° C., 75% RH, 1 hr) [g]	Weight change (%), water absorbed ([1]; 30° C., 75% RH, 1 hr)	Outward (appearance) ([1]; 30° C., 75% RH, 2 hr)	Weight ([1]; 30° C., 75% RH, 2 hr) [g]	Weight change (%), water absorbed ([1]; 30° C., 75% RH, 2 hr)	Weight ([1]; 30° C., 75% RH, 3 hr) [g]	Weight change (%), water absorbed ([1]; 30° C., 75% RH, 3 hr)	Outward (appearance) ([1]; 30° C., 75% RH, 5 hr)	Weight ([1]; 30° C., 75% RH, 5 hr) [g]	Weight change (%), water absorbed ([1]; 30° C., 75% RH, 5 hr)	Outward (appearance) ([1]; 30° C., 75% RH, 24 hr)	Weight ([1]; 30° C., 75% RH, 24 hr) [g]	Weight change (%), water absorbed ([1]; 30° C., 75% RH, 24 hr)	Weight ([1]; 30° C., 75% RH, 48 hr) [g]	Weight change (%), water absorbed ([1]; 30° C., 75% RH, 48 hr)	Weight ([1]; 30° C., 75% RH, 72 hr) [g]	Weight change (%), water absorbed ([1]; 30° C., 75% RH, 72 hr)	Change In Mass (%) ([2]; RH 70%)	Change In Mass (%) ([2]; RH 90%)	other results
CNCC(=O)O.CNCC(=O)O.O=C(O)C(O)C(O)C(=O)O (racemic) [N-MG/DL-TA = 2/1, N-methylglycine:DL-tartaric acid 2:1 co-crystal]	0.1628	0.1695	(+4.1%)	Wet	0.1768	(+8.6%)	0.1816	(+11.5%)	Partial	0.1877	(+15.3%)	Liquid	0.2374	(+45.8%)	0.2423	(+48.8%)	0.2441	(+49.9%)	3.12	30.35	Outward (appearance) ([1]; dry before): White; Weight ([1]; dry before): 0.1628 g; Weight change (%) [1]: (−0%); Change In Mass (%) ([2]; RH 0%): 0.00%; Change In Mass (%) ([2]; RH 10%): 0.15%; Change In Mass (%) ([2]; RH 20%): 0.21%; Change In Mass (%) ([2]; RH 30%): 0.26%; Change In Mass (%) ([2]; RH 40%): 0.77%; Change In Mass (%) ([2]; RH 60%): 2.03%; Change In Mass (%) ([2]; RH 80%): 8.12%
CNCC(=O)O.CNCC(=O)O.O=C(O)C(O)C(O)C(=O)O [N-methylglycine:L-tartaric acid 2:1 co-crystal]	–	–	–	–	–	–	–	–	–	–	–	–	–	–	–	–	–	–	0.18	10.74	–
CNCC(=O)O.CNCC(=O)O.O=C(O)C(O)C(O)C(=O)O (racemic) [N-methylglycine:DL-tartaric acid 2:1 co-crystal]	–	–	–	–	–	–	–	–	–	–	–	–	–	–	–	–	–	–	3.12	30.35	–
CNCC(=O)O.O=C(O)C(O)C(O)C(=O)O (racemic) [N-MG/DL-TA = 1/1, N-methylglycine:DL-tartaric acid 1:1 co-crystal]	0.1302	0.1349	(+3.6%)	Wet	0.1399	(+7.4%)	0.1469	(+12.8%)	Partial	0.1545	(+18.7%)	50%	0.1819	(+39.7%)	0.1819	(+39.7%)	0.1823	(+40.0%)	–	–	Outward (appearance) [1, 3]: started to turn into a partial liquid; Weight change (%), water absorbed [1, 3]: 18.7%; Hygroscopicity comparison ([1]; 30° C., 75% RH, listed as 1:1 N-methylglycine:DL-tartaric acid co-crystal): much less hygroscopic than 2:1 N-methylglycine:DL-tartaric acid co-crystal; Outward (appearance) ([1]; dry before): White; Weight ([1]; dry before): 0.1305 g; Weight change (%) [1]: (−0.2%)

Now from value to compound, other results behind:

Weight ([1]; 30° C., 75% RH, 0 hr) [g]	Weight ([1]; 30° C., 75% RH, 1 hr) [g]	Weight change (%), water absorbed ([1]; 30° C., 75% RH, 1 hr)	Outward (appearance) ([1]; 30° C., 75% RH, 2 hr)	Weight ([1]; 30° C., 75% RH, 2 hr) [g]	Weight change (%), water absorbed ([1]; 30° C., 75% RH, 2 hr)	Weight ([1]; 30° C., 75% RH, 3 hr) [g]	Weight change (%), water absorbed ([1]; 30° C., 75% RH, 3 hr)	Outward (appearance) ([1]; 30° C., 75% RH, 5 hr)	Weight ([1]; 30° C., 75% RH, 5 hr) [g]	Weight change (%), water absorbed ([1]; 30° C., 75% RH, 5 hr)	Outward (appearance) ([1]; 30° C., 75% RH, 24 hr)	Weight ([1]; 30° C., 75% RH, 24 hr) [g]	Weight change (%), water absorbed ([1]; 30° C., 75% RH, 24 hr)	Weight ([1]; 30° C., 75% RH, 48 hr) [g]	Weight change (%), water absorbed ([1]; 30° C., 75% RH, 48 hr)	Weight ([1]; 30° C., 75% RH, 72 hr) [g]	Weight change (%), water absorbed ([1]; 30° C., 75% RH, 72 hr)	Change In Mass (%) ([2]; RH 70%)	Change In Mass (%) ([2]; RH 90%)	Structure (SMILES)	other results
–	–	–	–	–	–	–	–	–	–	–	–	–	–	–	–	–	–	0.31	14.27	CNCC(=O)O.CNCC(=O)O.O=C(O)C(O)C(O)C(=O)O [N-methylglycine:D-tartaric acid 2:1 co-crystal]	–
–	–	–	–	–	–	–	–	–	–	–	–	–	–	–	–	–	–	0.31	14.27	CNCC(=O)O.CNCC(=O)O.O=C(O)C(O)C(O)C(=O)O [N-MG/D-TA = 2/1, N-methylglycine:D-tartaric acid 2:1 co-crystal]	Change In Mass (%) ([2]; RH 0%): 0.00%; Change In Mass (%) ([2]; RH 10%): 0.02%; Change In Mass (%) ([2]; RH 20%): 0.04%; Change In Mass (%) ([2]; RH 30%): 0.07%; Change In Mass (%) ([2]; RH 40%): 0.10%; Change In Mass (%) ([2]; RH 50%): 0.15%; Change In Mass (%) ([2]; RH 60%): 0.20%; Change In Mass (%) ([2]; RH 80%): 0.60%
